According to paper PMC12058161, “The plant matrix of Artemisia annua L. for the treatment of malaria: Pharmacodynamic and pharmacokinetic studies” (PLOS One, 2025):
Where “and” joins values, the source holds several entries; their conditions need not be identical. Equal values may be shown once.

How the values were obtained:
Caco-2 cells = experiment: Cytotoxicity in Caco-2 cells, CCK-8 assay; assay type: cell-based, human; details: for Cell survival rate%: mean; for cck-8 mean (survival fraction): mean of 6
Protocol: Caco-2 cells were cultured in 96-well plates for 48 h at a seeding density of 5.0 × 10^3 cells/well before the addition of drugs. […] The final concentration of DMSO was 0.05% (v/v). Experiments were initiated by replacing the culture medium in each well with 100 μL of sample solutions at 37°C in the CO2 incubator. After 48 h of incubation, the medium was removed and 10 μL of CCK-8 reagent in the serum-free medium was added to each well. The plates were then incubated at 37°C for another 2 h. At the end of the incubation period, the plates were quantified by reading the absorbance at 450 nm on a micro-plate multi-detection instrument, SpectraMax iD3 with SoftMax® Pro (Molecular Devices Corporation Sunnyvale, CA, USA). The percentage of cell viability was calculated based on the absorbance measured relative to the absorbance of cells exposed to the negative control.

[1] = Stability of the five compounds in SD rat plasma (QC samples, UHPLC-ESI-MS/MS); assay type: in vitro ADME; details: for 3 freeze-thaw cycles mean ± SD / 7 days at -80°C mean ± SD / Room temperature 24h mean ± SD: SD rat plasma QC sample; for stability, Accuracy (measured versus nominal concentration) / stability, mean ± SD (measured concentration): SD rat plasma, n=5
[2] = male, Sprague Dawley, rat, in vivo, po, 352 mg/kg
in vivo = details: male, Sprague Dawley, rat, po, 352 mg/kg
[3] = Caco-2, concentration 10 μmol/L
[4] = Caco-2, concentration 20 μmol/L
[5] = Caco-2, concentration 40 μmol/L
[6] = Caco-2, concentration 80 μmol/L
[7] = nominal 20 ng/mL, 3 freeze-thaw cycles
[8] = nominal 20 ng/mL, 7 days at -80°C
[9] = nominal 1000 ng/mL, 3 freeze-thaw cycles
[10] = nominal 1000 ng/mL, 7 days at -80°C
[11] = nominal 5000 ng/mL, 3 freeze-thaw cycles
[12] = nominal 5000 ng/mL, 7 days at -80°C
[13] = nominal 20 ng/mL, Room temperature 24h
[14] = nominal 1000 ng/mL, Room temperature 24h
[15] = nominal 5000 ng/mL, Room temperature 24h

C[C@@H]1CC[C@H]2[C@@H](C)C(=O)O[C@@H]3O[C@@]4(C)CC[C@@H]1[C@]32O4 [DEART, Deoxyartemisinin]
Cell survival rate%, single replicate (Caco-2 cells; Caco-2, 5μmol/L): 87.61% and 87.6% and 80.17% and 81.51% and 81.61% and 87.86%
Cell survival rate%, single replicate (Caco-2 cells; Caco-2, 10μmol/L): 81.2% and 82.86% and 82.71% and 83.82% and 87.89% and 87.9%
Cell survival rate%, single replicate (Caco-2 cells; Caco-2, 20μmol/L): 86.78% and 81.42% and 81.32% and 82.7% and 86.07% and 80.23%
Cell survival rate%, single replicate (Caco-2 cells; Caco-2, 40μmol/L): 83.23% and 82.76% and 82.72% and 82.4% and 81.01% (2×)
Cell survival rate%, single replicate (Caco-2 cells; Caco-2, 80μmol/L): 79.21% and 80.38% and 82.01% and 81.79% and 85.15% and 82.39%
cck-8 cell survival as fraction, single replicate (Caco-2 cells; Caco-2, concentration 5 μmol/L): 0.8761 and 0.876 and 0.8017 and 0.8151 and 0.8161 and 0.8786
Cell survival rate% (Caco-2 cells; Caco-2, concentration 5 μmol/L): 84.39%
cck-8 mean (survival fraction) (Caco-2 cells; Caco-2, concentration 5 μmol/L): 0.84
cck-8 cell survival as fraction, single replicate (Caco-2 cells; [3]): 0.812 and 0.8286 and 0.8271 and 0.8382 and 0.8789 and 0.879
Cell survival rate% (Caco-2 cells; [3]): 84.40%
cck-8 mean (survival fraction) (Caco-2 cells; [3]): 0.84
cck-8 cell survival as fraction, single replicate (Caco-2 cells; [4]): 0.8678 and 0.8142 and 0.8132 and 0.827 and 0.8607 and 0.8023
Cell survival rate% (Caco-2 cells; [4]): 83.09%
cck-8 mean (survival fraction) (Caco-2 cells; [4]): 0.83
cck-8 cell survival as fraction, single replicate (Caco-2 cells; [5]): 0.8323 and 0.8276 and 0.8272 and 0.824 and 0.8101
Cell survival rate% (Caco-2 cells; [5]): 82.19%
cck-8 mean (survival fraction) (Caco-2 cells; [5]): 0.82
cck-8 cell survival as fraction, single replicate (Caco-2 cells; [6]): 0.7921 and 0.8038 and 0.8201 and 0.8179 and 0.8515 and 0.8239
Cell survival rate% (Caco-2 cells; [6]): 81.82%
cck-8 mean (survival fraction) (Caco-2 cells; [6]): 0.82
Stability in plasma, measured concentration (mean ± SD) ([1]; 3 freeze-thaw cycles, QC concentration 20 ng/mL): 21.4 ± 1.03 ng/mL
Stability in plasma, measured concentration (mean ± SD) ([1]; 3 freeze-thaw cycles, QC concentration 1000 ng/mL): 1069 ± 21.8 ng/mL
Stability in plasma, measured concentration (mean ± SD) ([1]; 3 freeze-thaw cycles, QC concentration 5000 ng/mL): 4765 ± 110 ng/mL
Stability in plasma, measured concentration (mean ± SD) ([1]; 7 days at -80°C, QC concentration 20 ng/mL): 21.1 ± 1.73 ng/mL
Stability in plasma, measured concentration (mean ± SD) ([1]; 7 days at -80°C, QC concentration 1000 ng/mL): 1069 ± 21.6 ng/mL
Stability in plasma, measured concentration (mean ± SD) ([1]; 7 days at -80°C, QC concentration 5000 ng/mL): 4705 ± 267 ng/mL
Stability, measured concentration, mean ± SD ([1]; QC sample 20 ng/mL, 3 freeze-thaw cycles): 21.4 ± 1.03 ng/mL
Stability, measured concentration, mean ± SD ([1]; QC sample 20 ng/mL, 7 days at -80°C): 21.1 ± 1.73 ng/mL
Stability, measured concentration, mean ± SD ([1]; QC sample 20 ng/mL, Room temperature 24h): 21.6 ± 0.78 ng/mL
Stability, measured concentration, mean ± SD ([1]; QC sample 1000 ng/mL, 3 freeze-thaw cycles): 1069 ± 21.8 ng/mL
Stability, measured concentration, mean ± SD ([1]; QC sample 1000 ng/mL, 7 days at -80°C): 1069 ± 21.6 ng/mL
Stability, measured concentration, mean ± SD ([1]; QC sample 1000 ng/mL, Room temperature 24h): 1093 ± 39.5 ng/mL
Stability, measured concentration, mean ± SD ([1]; QC sample 5000 ng/mL, 3 freeze-thaw cycles): 4765 ± 110 ng/mL
Stability, measured concentration, mean ± SD ([1]; QC sample 5000 ng/mL, 7 days at -80°C): 4705 ± 267 ng/mL
Stability, measured concentration, mean ± SD ([1]; QC sample 5000 ng/mL, Room temperature 24h): 5205 ± 494 ng/mL
Stability in plasma, measured concentration (mean ± SD) ([1]; Room temperature 24h, QC concentration 20 ng/mL): 21.6 ± 0.78 ng/mL
Stability in plasma, measured concentration (mean ± SD) ([1]; Room temperature 24h, QC concentration 1000 ng/mL): 1093 ± 39.5 ng/mL
Stability in plasma, measured concentration (mean ± SD) ([1]; Room temperature 24h, QC concentration 5000 ng/mL): 5205 ± 494 ng/mL
3 freeze-thaw cycles mean ± SD [1, 7]: 21.4 ± 1.03 ng/mL and 21.3622 ng/mL
7 days at -80°C mean ± SD [1, 8]: 21.1 ± 1.73 ng/mL and 21.1491 ng/mL
Room temperature 24h mean ± SD ([1]; nominal 20 ng/mL): 21.6 ± 0.78 ng/mL and 21.6437 ng/mL
3 freeze-thaw cycles mean ± SD [1, 9]: 1069 ± 21.8 ng/mL and 1069.41 ng/mL
7 days at -80°C mean ± SD [1, 10]: 1069 ± 21.6 ng/mL and 1068.61 ng/mL
Room temperature 24h mean ± SD ([1]; nominal 1000 ng/mL): 1093 ng/mL and 1093 ± 39.5 ng/mL
3 freeze-thaw cycles mean ± SD [1, 11]: 4765 ± 110 ng/mL and 4765.19 ng/mL
7 days at -80°C mean ± SD [1, 12]: 4705 ± 267 ng/mL and 4704.92 ng/mL
Room temperature 24h mean ± SD ([1]; nominal 5000 ng/mL): 5205.17 ng/mL and 5205 ± 494 ng/mL
stability, Accuracy (measured versus nominal concentration) [1, 7]: 106.81%
stability, mean ± SD (measured concentration) [1, 7]: 21.4 ± 1.03 ng/mL
stability, Accuracy (measured versus nominal concentration) [1, 8]: 105.75%
stability, mean ± SD (measured concentration) [1, 8]: 21.1 ± 1.73 ng/mL
stability, Accuracy (measured versus nominal concentration) [1, 13]: 108.22%
stability, mean ± SD (measured concentration) [1, 13]: 21.6 ± 0.78 ng/mL
stability, Accuracy (measured versus nominal concentration) [1, 9]: 106.94%
stability, mean ± SD (measured concentration) [1, 9]: 1069 ± 21.8 ng/mL
stability, Accuracy (measured versus nominal concentration) [1, 10]: 106.86%
stability, mean ± SD (measured concentration) [1, 10]: 1069 ± 21.6 ng/mL
stability, Accuracy (measured versus nominal concentration) [1, 14]: 109.30%
stability, mean ± SD (measured concentration) [1, 14]: 1093 ± 39.5 ng/mL
stability, Accuracy (measured versus nominal concentration) [1, 11]: 95.30%
stability, mean ± SD (measured concentration) [1, 11]: 4765 ± 110 ng/mL
stability, Accuracy (measured versus nominal concentration) [1, 12]: 94.10%
stability, mean ± SD (measured concentration) [1, 12]: 4705 ± 267 ng/mL
stability, Accuracy (measured versus nominal concentration) [1, 15]: 104.10%
stability, mean ± SD (measured concentration) [1, 15]: 5205 ± 494 ng/mL
CL [2]: 0.024 ± 0.003 L/h
Vz [2]: 0.135 ± 0.049 L
AUC(0-inf) (in vivo): 848 ± 111 ng·h/mL
AUC(0-t) (in vivo): 750 ± 114 ng·h/mL
Cmax (in vivo; Cmax): 143 ± 37.3 ng/mL
MRT last (in vivo; MRT(0-t)): 4.04 ± 0.427 h
MRT inf (in vivo; MRT(0-∞)): 6.12 ± 1.34 h
half-life (in vivo; t1/2): 3.94 ± 1.57 h
